The subject of series [1] is B6 mice. Description: Glucose tolerance test in fasted mice. It is filed as in vivo, mouse. To be noted: 10 nmol/kg IP, glucose 2 g/kg IP 30 minutes later. As to the method:
To evaluate whether the relative proteolytic stability of SAH-GLP-1(16,23,30) translated into a functional benefit in vivo, glucose tolerance tests in mice were performed. Mice (n=8 per arm) were fasted overnight and administered the corresponding panel of peptides at 10 nmol/kg intraperitoneally followed by a glucose bolus (2 g/kg) 30 minutes later, and then serial serum glucose monitoring was performed over time.
In vivo efficacy testing of SAH-GLP-1 peptides. Male B6 and db/db mice (JAX 000697) at 10-12 weeks of age were housed (5 mice/cage) at a constant room temperature of 24° C. on a normal day-light cycle and provided a standard diet ad libitum. After one week of acclimatization, B6 mice (n=8 per treatment arm) were fasted for 16 hours overnight and the following morning baseline blood glucose levels were measured (Onetouch), followed by intraperitoneal (IP) injection of vehicle (saline) or the indicated peptide (10 nmol/kg). Thirty minutes later, the mice were treated with a bolus IP injection of glucose (2 g/kg, 20% aqueous solution), followed by serial blood glucose monitoring at 0, 15, 30, 60, and 120 minutes. To evaluate the comparative anti-hyperglycemic effects of peptides in db/db mice (n=8 per treatment arm), vehicle (saline) or the indicated peptide (10 nmol/kg) was injected IP and blood glucose levels monitored at 0, 15, 30, 60, and 720 minutes.

In series [2] the target is T1, proteinase K (Parengyodontium album, UniProt P06873).
T1 construct: purchased New England Biolabs
T1 sequence (P06873 106-384): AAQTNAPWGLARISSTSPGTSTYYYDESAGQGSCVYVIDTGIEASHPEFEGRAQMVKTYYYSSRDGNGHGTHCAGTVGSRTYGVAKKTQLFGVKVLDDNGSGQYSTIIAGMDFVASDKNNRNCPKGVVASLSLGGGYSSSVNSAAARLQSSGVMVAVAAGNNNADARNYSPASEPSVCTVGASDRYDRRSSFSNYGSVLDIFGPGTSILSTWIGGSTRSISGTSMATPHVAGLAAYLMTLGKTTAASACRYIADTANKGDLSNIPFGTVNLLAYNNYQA
Type of series: in vitro ADME.

The conditions of series [3]: mouse. Here is the method: Plasma Stability Testing. Peptide stability was tested in freshly drawn mouse plasma collected in lithium heparin tubes. Peptide plasma incubations were set up with 500 µL of plasma spiked with 10 µM of the individual peptides. Samples were gently shaken in an orbital shaker at 37° C., and 20 µL aliquots were removed at 0, 5, 15, 30, 60, 120, and 200 minutes and added to 150 µL of a mixture containing 50% water/50% acetonitrile to stop further degradation of the peptides. The samples were allowed to sit on ice for the duration of the assay and then transferred to a MultiScreen Solvinert 0.45 µm low-binding hydrophilic PTFE plate (Millipore). The filtrate was directly analyzed by LC/MS/MS using a Thermo BetaSil column, 2.1 × 50 mm, 5 µm. […] The percentage of remaining peptide was determined by the decrease in chromatographic peak area and log transformed to calculate the half-life.

Series [4] addresses human GLP-1 receptor (Homo sapiens, UniProt P43220). Particulars: GFP-GLP-1R U2OS cells; FIG. 6A, 6B (lower dose-range 1 µM, 100 nM, 10 nM).
Series [5] addresses GLP-1R expressed on CHO-K1 cells (cAMP Hunter eXpress GLP1R CHO-K1 GPCR Assay, Eurofins, 95-0062E2CP2S) (UniProt P43220 24-463). The series can be described thus: cell-based or functional assay.

This note sets out measurements from patent US20230183309A1 (Dana-Farber Cancer Institute, Inc., priority 2019, published 2023).

“Also recorded” adds a separate entry of the source. Numbered stars: 1 amine (or outer) side, 2 acyl side, 3 side chain; on linkers, the order of the positions; unused ones are H or OH. Bridge positions count the residues as written; N and C are the ends. Square brackets hold non-standard residues; d marks the D form. code # = α,α-bis(4′-pentenyl)glycine, C=CCCCC(CCCC=C)(N[*:1])C(=O)[*:2]; R8 = C=CCCCCCC[C@@](C)(N)C(=O)O; S8 = C=CCCCCCC[C@](C)(N)C(=O)O; Aib = CC(C)(N)C(=O)O

Sequence of human GLP-1 receptor (P43220 24-463): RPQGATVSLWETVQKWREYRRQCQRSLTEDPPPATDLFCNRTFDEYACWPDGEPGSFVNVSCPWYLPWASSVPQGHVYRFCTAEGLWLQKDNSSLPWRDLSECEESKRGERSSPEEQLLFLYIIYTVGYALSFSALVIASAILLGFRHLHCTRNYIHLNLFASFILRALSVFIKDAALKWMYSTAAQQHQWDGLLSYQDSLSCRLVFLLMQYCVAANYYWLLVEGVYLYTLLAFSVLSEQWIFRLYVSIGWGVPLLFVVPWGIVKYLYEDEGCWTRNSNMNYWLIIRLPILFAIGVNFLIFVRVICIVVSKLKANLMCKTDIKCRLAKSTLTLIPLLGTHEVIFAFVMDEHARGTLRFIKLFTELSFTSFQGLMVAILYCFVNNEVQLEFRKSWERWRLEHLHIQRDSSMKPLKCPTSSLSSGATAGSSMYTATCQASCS

As to `CC[C@H](C)[C@H](NC(=O)[C@H](Cc1ccccc1)NC(=O)[C@H](CCC(=O)O)NC(=O)[C@H](CCCCN)NC(=O)[C@H](C)NC(=O)[C@H](C)NC(=O)[C@H](CCC(N)=O)NC(=O)CNC(=O)[C@H](CCC(=O)O)NC(=O)[C@H](CC(C)C)NC(=O)[C@H](Cc1ccc(O)cc1)NC(=O)[C@H](CO)NC(=O)[C@H](CO)NC(=O)[C@@H](NC(=O)[C@H](CC(=O)O)NC(=O)[C@H](CO)NC(=O)[C@@H](NC(=O)[C@H](Cc1ccccc1)NC(=O)[C@@H](NC(=O)CNC(=O)[C@H](CCC(=O)O)NC(=O)[C@H](C)NC(=O)[C@@H](N)Cc1c[nH]cn1)[C@@H](C)O)[C@@H](C)O)C(C)C)C(=O)N[C@@H](C)C(=O)N[C@@H](Cc1c[nH]c2ccccc12)C(=O)N[C@@H](CC(C)C)C(=O)N[C@H](C(=O)N[C@@H](CCCCN)C(=O)NCC(=O)N[C@@H](CCCNC(=N)N)C(N)=O)C(C)C` [GLP-1], the “control of induced hyperglycemia in glucose tolerance test” value in series [1] was “least effective”.
As to `CC[C@H](C)[C@@H]1NC(=O)[C@H](Cc2ccccc2)NC(=O)[C@H](CCC(=O)O)NC(=O)[C@H](CCCCN)NC(=O)[C@H](C)NC(=O)[C@H](C)NC(=O)C2(CCCC=CCCCCCC[C@@](C)(NC(=O)[C@H](CC(=O)O)NC(=O)[C@H](CO)NC(=O)[C@@H](NC(=O)[C@H](Cc3ccccc3)NC(=O)[C@@H](NC(=O)CNC(=O)[C@H](CCC(=O)O)NC(=O)C(C)(C)NC(=O)[C@@H](N)Cc3c[nH]cn3)[C@@H](C)O)[C@@H](C)O)C(=O)N[C@@H](CO)C(=O)N[C@@H](CO)C(=O)N[C@@H](Cc3ccc(O)cc3)C(=O)N[C@@H](CC(C)C)C(=O)N[C@@H](CCC(=O)O)C(=O)NCC(=O)N2)CCCC=CCCCCCC[C@@](C)(C(=O)N[C@@H](Cc2c[nH]c3ccccc23)C(=O)N[C@@H](CC(C)C)C(=O)N[C@H](C(=O)N[C@@H](CCCCN)C(=O)NCC(=O)N[C@@H](CCCNC(=N)N)C(N)=O)C(C)C)NC1=O` (stereo partly drawn) [SAH-GLP-1(16,23,30), HJEGTFTSD8SSYLEG#AAKEFIZWLVKGR], in series [2], the “improvement of proteinase K half-life compared to the singly stapled peptides” value is 2-7 fold and the “improvement of proteinase K half-life compared to wild-type / control peptide” value is “over 20 fold”. Further, in series [2] (proteinase K, 50 mM Tris-HCl, pH 7.4, peptides have the A8Aib substitution, read-out: t½ (half-life), proteinase K digestion, intact peptide by LCMS), the half-life came to 220 min. The “plasma half-life relative to semaglutide” value in series [3] was “nearly double”. Also, the half-life in series [3] (plasma) was 320 min.
Regarding `CC[C@H](C)[C@H](NC(=O)[C@H](Cc1ccccc1)NC(=O)[C@H](CCC(=O)O)NC(=O)[C@H](CCCCNC(=O)COCCOCCNC(=O)COCCOCCNC(=O)CC[C@H](NC(=O)CCCCCCCCCCCCCCCCC(=O)O)C(=O)O)NC(=O)[C@H](C)NC(=O)[C@H](C)NC(=O)[C@H](CCC(N)=O)NC(=O)CNC(=O)[C@H](CCC(=O)O)NC(=O)[C@H](CC(C)C)NC(=O)[C@H](Cc1ccc(O)cc1)NC(=O)[C@H](CO)NC(=O)[C@H](CO)NC(=O)[C@@H](NC(=O)[C@H](CC(=O)O)NC(=O)[C@H](CO)NC(=O)[C@@H](NC(=O)[C@H](Cc1ccccc1)NC(=O)[C@@H](NC(=O)CNC(=O)[C@H](CCC(=O)O)NC(=O)C(C)(C)NC(=O)[C@@H](N)Cc1cnc[nH]1)[C@@H](C)O)[C@@H](C)O)C(C)C)C(=O)N[C@@H](C)C(=O)N[C@@H](Cc1c[nH]c2ccccc12)C(=O)N[C@@H](CC(C)C)C(=O)N[C@H](C(=O)N[C@@H](CCCNC(=N)N)C(=O)NCC(=O)N[C@@H](CCCNC(=N)N)C(=O)NCC(=O)O)C(C)C` [semaglutide, reference compound], in series [2] (identical conditions as FIG. 7A, FIG. 7B), the “proteolysis by proteinase K (in words)” value is “rapidly proteolyzed; also recorded: rapid proteolysis”.
For the molecule “HGEGTFTSD8SSYLEG#AAKEFIZWLVKGR (H-HGEGTFTSD[R8]SSYLEG[code #]AAKEFI[S8]WLVKGR-NH2; staple 10-17, 17-24) [SAH-GLP-1(A8G)(16,23,30)]”, the “GLP-1R internalization activity compared with the corresponding unstapled / wild-type GLP-1 peptide” value in series [4] is “more active”.
On to H-H[Aib]EGTFTSD[R8]SSYLEG[code #]AAKEFI[S8]WLVKGR-NH2 (staple 10-17, 17-24) [SAH-GLP-1(16,23,30) A8J], for which the “cAMP induction (cAMP Hunter eXpress luminescence assay), EC50” value in series [5] amounted to 160 pM.
